Source: US11319313B2, “Crystalline forms of deuterium-enriched pioglitazone” (Poxel SA, priority 2020, dated 2022)
Structures can show the parent of a compound that is named as a salt. Where two headings read alike, the source gives them in different places. Marks after values point to notes of the source that are not given here. One block for each molecule: values may come before it.

How the values were obtained:
[1] = Dog pharmacokinetic (PK) study, single oral administration; format: in vivo, Beagle dogs; conditions: dog, in vivo; for AUC0-24, Total Pio / AUC0-24, Total R-pio / AUC0-24, Total S-pio / Cmax, Total Pio / Cmax, Total R-pio / Cmax, Total S-pio / T1/2z, Total Pio / T1/2z, Total R-pio / T1/2z, Total S-pio / Tmax, Total Pio / Tmax, Total R-pio / Tmax, Total S-pio: po
Experimental: The 3 Beagle male dogs were fasted before dosing. Then all test drugs were administered by the oral route using API in a capsule. [table] Food was given no sooner than one hour after dose administration on the days of treatment. Each administration was separated by a wash-out period of at least 2 days. […] Predose (just before dosing) and then […] after dosing.

[2] = Solubility of crystalline HCl salt in various solvents (visual dissolution); format: physicochemical; conditions: 22 °C, thermodynamic from solid, ambient temperature, visual inspection
Experimental: […]; (ii) the resulting mixtures were then stirred at ambient temperature (about 21° C. to about 23° C.) for 5-10 minutes; (iii) the mixtures were then visually inspected to determine if the crystalline HCl salt had completely dissolved; (iv) if the crystalline HCl salt had not completely dissolved more solvent was added until complete dissolution occurred. Quantitative testing: (i) 100 mg of crystalline HCl salt was added to 4 vol. of each solvent (0.4 mL) dimethylformamide, methanol and DMSO; (ii) the resulting mixtures were then stirred at ambient temperature (about 20° C. to about 25° C.) for 5-10 minutes; (iii) the mixtures were then visually inspected to determine if the crystalline HCl salt had completely dissolved; (iv) if the crystalline HCl salt had not completely dissolved more solvent was added until complete dissolution occurred.
The solubilities were then calculated using the total quantity of crystalline HCl salt and solvent used for each solvent.

[3] = pH-dependent solubility of crystalline salts (48 h equilibration, HPLC); format: physicochemical; conditions: for solubility at 48 h: 22 °C, thermodynamic from solid; for Solubility: room temperature, 48 hours
Experimental: The pH-dependent solubility profiles of the crystalline DCl salt form of deuterium-enriched (R)-pioglitazone, and crystalline pioglitazone HCl were determined at room temperature (about 21° C. to about 23° C.) in the pH range of 0.3-7.6. For the crystalline HCl salt form of deuterium-enriched (R)-pioglitazone, the pH-dependent solubility profile was measured at room temperature (about 21° C. to about 23° C.) in the pH range of 0.3-3.5.
For the crystalline DCl salt form of deuterium-enriched pioglitazone, the pH-dependent solubility profile was measured at room temperature (about 21° C. to about 23° C.) in the pH range of 0.7-3.5.
Suspensions of the three crystalline forms were prepared in water or USP buffer solutions. The pH of the suspensions was adjusted through the addition of 0.1 M HCl or 0.1 M NaOH. For the preparation of suspensions with a pH of 0.5 or lower, the pH was adjusted using 1 M HCL.
The suspensions were then allowed to equilibrate at room temperature (about 21° C. to about 23° C.) for 48 hours. After equilibration the solid phases were separated from the liquid phases by centrifugation, subsequently dried and then analyzed by XRPD. The concentration of deuterium-enriched (R)-pioglitazone or pioglitazone in the liquid phases (mother liquors) was determined by HPLC (see HPLC method described in Example 5).

[4] = Solubility of crystalline DCl salt in various solvents (suspension, HPLC); format: physicochemical; conditions: 24 hours at room temperature
From the text: Aliquots of the mother liquor were then taken from each suspension and analyzed by HPLC to determine the concentration of deuterium-enriched (R)-pioglitazone in the different solvents. [table]

[5] = 13-week dog toxicology study, toxicokinetics on day 91; conditions: Day 91, 10 mg/kg/day
[6] = in vivo; conditions: beagle, dog, plasma, po, 10 mg/kg/day
[7] = pH 1.6, simulated gastric fluid
[8] = Water, filtered mother liquor pH 1.6

Frel vs PXL061 (relative oral bioavailability), Total Pioglitazone [1]: 1 | AUC0-24, Total Pio ([1]; 10 mg/kg): 4800 ng·h/mL | AUC0-24, Total R-pio ([1]; 10 mg/kg): 2650 ng·h/mL | AUC0-24, Total S-pio ([1]; 10 mg/kg): 2150 ng·h/mL | Cmax, Total Pio ([1]; 10 mg/kg): 1310 ng/mL | Cmax, Total R-pio ([1]; 10 mg/kg): 638 ng/mL | Cmax, Total S-pio ([1]; 10 mg/kg): 683 ng/mL | T1/2z, Total Pio ([1]; 10 mg/kg): 4.03 h | T1/2z, Total R-pio ([1]; 10 mg/kg): 2.78 h | T1/2z, Total S-pio ([1]; 10 mg/kg): 3.61 h | Tmax, Total Pio ([1]; 10 mg/kg): 1 h | Tmax, Total R-pio ([1]; 10 mg/kg): 1 h | Tmax, Total S-pio ([1]; 10 mg/kg): 1 h
Structure (SMILES): [2H]C1(Cc2ccc(OCCc3ccc(CC)cn3)cc2)SC(=O)NC1=O (racemic) [PXL061, deuterium-enriched pioglitazone]

Structure (SMILES): [2H][C@]1(Cc2ccc(OCCc3ccc(CC)cn3)cc2)SC(=O)NC1=O [deuterium-enriched (R)-pioglitazone]
Solubility ([2]; organic solvent or mixture, DMSO): > 50000 µg/mL | Solubility ([2]; organic solvent or mixture, Dichloromethane): 5000 to 10000 µg/mL | Solubility ([2]; organic solvent or mixture, Ethanol): 5000 to 10000 µg/mL | Solubility ([2]; organic solvent or mixture, Ethyl acetate): 5000 to 10000 µg/mL | Solubility ([2]; organic solvent or mixture, Methanol): ~50000 µg/mL | Solubility ([2]; organic solvent or mixture, N,N-dimethylformamide): ~50000 µg/mL | Solubility ([2]; organic solvent or mixture, Tetrahydrofuran): 5000 to 10000 µg/mL | Solubility ([2]; organic solvent or mixture, Toluene): 5000 to 10000 µg/mL | Solubility ([2]; Water): 5000 to 10000 µg/mL | solubility at 48 h ([3]; pH 0.5, aqueous buffer): 2330 µg/mL | solubility at 48 h ([3]; pH 0.6, aqueous buffer): 2600 µg/mL | solubility at 48 h ([3]; pH 0.7, aqueous buffer): 3270 µg/mL | solubility at 48 h ([3]; pH 0.8, aqueous buffer): 3770 µg/mL | solubility at 48 h ([3]; pH 1.4, simulated gastric fluid): 5250 µg/mL | solubility at 48 h [3, 7]: 3470 µg/mL | solubility at 48 h ([3]; pH 3, aqueous buffer): 200 µg/mL | solubility at 48 h ([3]; pH 5.7, aqueous buffer): < 50 µg/mL | Solubility (in words) ([3]; pH 4): practically insoluble

Solubility ([4]; 2-propanol): 500 µg/mL | Solubility ([4]; 3-pentanone): 500 µg/mL | Solubility ([4]; Acetone): 500 µg/mL | Solubility ([4]; Chloroform): 2000 µg/mL | Solubility ([4]; DMSO): 225900 µg/mL | Solubility ([4]; Ethanol): 4400 µg/mL | Solubility ([4]; Ethyl acetate): <100 µg/mL | Solubility ([4]; Methanol): 45000 µg/mL | Solubility ([4]; N,N-dimethylformamide): 46400 µg/mL | Solubility ([4]; Tetrahydrofuran): 1800 µg/mL | Solubility ([4]; Water): 7700 µg/mL | Solubility ([4]; tert-butyl methyl ether): <100 µg/mL | Solubility ([3]; Acetate Buffer, filtered mother liquor pH 4.4): <50 µg/mL | Solubility ([3]; Phosphate Buffer, filtered mother liquor pH 6.5): <50 µg/mL | Solubility ([3]; Phosphate Buffer, filtered mother liquor pH 7.4): <50 µg/mL | Solubility ([3]; Water, filtered mother liquor pH 0.4): 1600 µg/mL | Solubility ([3]; Water, filtered mother liquor pH 0.6): 3010 µg/mL | Solubility ([3]; Water, filtered mother liquor pH 0.8): 3300 µg/mL | Solubility ([3]; Water, filtered mother liquor pH 1.4): 4540 µg/mL | Solubility [3, 8]: 2580 µg/mL | Solubility ([3]; Water, filtered mother liquor pH 2.4): 390 µg/mL | Solubility ([3]; Water, filtered mother liquor pH 3.7): 50 µg/mL | Solubility ([3]; Water, filtered mother liquor pH 6.8): <50 µg/mL | Solubility (in words) ([3]; above pH 4): practically insoluble
Structure (SMILES): [2H]Cl.[2H]N1C(=O)S[C@]([2H])(Cc2ccc(OCCc3ccc(CC)cn3)cc2)C1=O [deuterium-enriched (R)-pioglitazone]

Solubility (in words) [3]: practically insoluble | solubility at 48 h ([3]; pH 0.6, aqueous buffer): 2880 µg/mL | solubility at 48 h ([3]; pH 0.7, aqueous buffer): 4000 µg/mL | solubility at 48 h ([3]; pH 1.2, simulated gastric fluid): 670 µg/mL | solubility at 48 h [3, 7]: 440 µg/mL | solubility at 48 h ([3]; pH 3, aqueous buffer): 30 µg/mL | solubility at 48 h ([3]; pH 4.5, aqueous buffer): < 30 µg/mL | solubility at 48 h ([3]; pH 4.6, aqueous buffer): < 30 µg/mL | solubility at 48 h ([3]; pH 5.6, aqueous buffer): < 30 µg/mL | solubility at 48 h ([3]; pH 6.6, aqueous buffer): < 30 µg/mL | solubility at 48 h ([3]; pH 7.6, aqueous buffer): < 30 µg/mL
Structure (SMILES): CCc1ccc(CCOc2ccc(CC3SC(=O)NC3=O)cc2)nc1 (centres unmarked) [Pioglitazone HCl Salt, pioglitazone hydrochloride, reference compound]

Solubility ([3]; Water, filtered mother liquor pH 0.7): 5240 µg/mL | Solubility ([3]; Water, filtered mother liquor pH 0.9): 2490 µg/mL | Solubility ([3]; Water, filtered mother liquor pH 1.1): 1630 µg/mL | Solubility [3, 8]: 420 µg/mL | Solubility ([3]; Water, filtered mother liquor pH 3.1): <30 µg/mL | Solubility ([3]; Water, filtered mother liquor pH 4.8): <30 µg/mL
Structure (SMILES): [2H]Cl.[2H]N1C(=O)SC([2H])(Cc2ccc(OCCc3ccc(CC)cn3)cc2)C1=O (racemic) [deuterium-enriched pioglitazone]
pH-dependent solubility behavior (in words) ([3]; pH range 0.7-3.5): behavior similar to that of pioglitazone HCl

AUC(0-t) ([6]; female): 5620 ng·h/mL | AUC(0-t) ([6]; male): 2970 ng·h/mL
Structure (SMILES): CCc1ccc(CCOc2ccc(CC3SC(=O)NC3=O)cc2)nc1 (racemic) [Pioglitazone]
AUC0-24, ss dose normalized, total pioglitazone ([5]; female dogs (F)): 562 ng·h/mL | AUC0-24, ss dose normalized, total pioglitazone ([5]; male dogs (M)): 297 ng·h/mL

AUC0-24, Total Pio ([1]; 5 mg/kg): 1410 ng·h/mL | AUC0-24, Total R-pio ([1]; 5 mg/kg): 203 ng·h/mL | AUC0-24, Total S-pio ([1]; 5 mg/kg): 1200 ng·h/mL | Cmax, Total Pio ([1]; 5 mg/kg): 588 ng/mL | Cmax, Total R-pio ([1]; 5 mg/kg): 54.0 ng/mL | Cmax, Total S-pio ([1]; 5 mg/kg): 538 ng/mL | T1/2z, Total Pio ([1]; 5 mg/kg): 1.73 h | T1/2z, Total R-pio ([1]; 5 mg/kg): 1.91^a h | T1/2z, Total S-pio ([1]; 5 mg/kg): 1.75 h | Tmax, Total Pio ([1]; 5 mg/kg): 2 h | Tmax, Total R-pio ([1]; 5 mg/kg): 2 h | Tmax, Total S-pio ([1]; 5 mg/kg): 2 h
Structure (SMILES): [2H][C@@]1(Cc2ccc(OCCc3ccc(CC)cn3)cc2)SC(=O)NC1=O [PXL064, deuterium-enriched (S)-pioglitazone]
